Results reported in patent US20100184851A1, “INHIBITION OF CELL PROLIFERATION” (priority 2008, published 2010).
Structures can show the parent of a compound that is named as a salt. Where two headings read alike, the source gives them in different places.

Columns and labels:
[1] = test system: A549 cells lacking Raf-1 (sh-13B); assay: BrdU incorporation, A549 cells lacking Raf-1; format: cell-based, human; conditions: 20 μM
Description: A549 cells lacking Raf-1 (sh-13B) were generated by stably transfecting a shRNA to Raf-1. Control cells were generated by stably transfecting A549 cells with a control shRNA. The cells were incubated in the presence or absence of compounds 3a, 10b and 10c (20 μM) and S-phase entry was assessed by measuring BrdU incorporation. Relative to controls incubated in the absence of compound, proliferation of the cells with control shRNA (having Raf-1) was inhibited by each of the compounds. In contrast, proliferation of the cells lacking Raf-1 (the cells transfected with Raf-inhibitory shRNA) was not inhibited by the compound. This experiment provides evidence that inhibition of cell proliferation by compounds of the invention is mediated by Raf-1 […].

[2] = molecular target: T1, Rb:Raf-1 binding (Homo sapiens, UniProt P06400); assay: GST-Rb/GST-Raf-1 ELISA, inhibition of Rb:Raf-1 binding
T1 construct: a glutathione S-transferase (GST) Raf-1 (1-149aa) overnight at 4° C; made in house
T1 sequence (P06400 1-928): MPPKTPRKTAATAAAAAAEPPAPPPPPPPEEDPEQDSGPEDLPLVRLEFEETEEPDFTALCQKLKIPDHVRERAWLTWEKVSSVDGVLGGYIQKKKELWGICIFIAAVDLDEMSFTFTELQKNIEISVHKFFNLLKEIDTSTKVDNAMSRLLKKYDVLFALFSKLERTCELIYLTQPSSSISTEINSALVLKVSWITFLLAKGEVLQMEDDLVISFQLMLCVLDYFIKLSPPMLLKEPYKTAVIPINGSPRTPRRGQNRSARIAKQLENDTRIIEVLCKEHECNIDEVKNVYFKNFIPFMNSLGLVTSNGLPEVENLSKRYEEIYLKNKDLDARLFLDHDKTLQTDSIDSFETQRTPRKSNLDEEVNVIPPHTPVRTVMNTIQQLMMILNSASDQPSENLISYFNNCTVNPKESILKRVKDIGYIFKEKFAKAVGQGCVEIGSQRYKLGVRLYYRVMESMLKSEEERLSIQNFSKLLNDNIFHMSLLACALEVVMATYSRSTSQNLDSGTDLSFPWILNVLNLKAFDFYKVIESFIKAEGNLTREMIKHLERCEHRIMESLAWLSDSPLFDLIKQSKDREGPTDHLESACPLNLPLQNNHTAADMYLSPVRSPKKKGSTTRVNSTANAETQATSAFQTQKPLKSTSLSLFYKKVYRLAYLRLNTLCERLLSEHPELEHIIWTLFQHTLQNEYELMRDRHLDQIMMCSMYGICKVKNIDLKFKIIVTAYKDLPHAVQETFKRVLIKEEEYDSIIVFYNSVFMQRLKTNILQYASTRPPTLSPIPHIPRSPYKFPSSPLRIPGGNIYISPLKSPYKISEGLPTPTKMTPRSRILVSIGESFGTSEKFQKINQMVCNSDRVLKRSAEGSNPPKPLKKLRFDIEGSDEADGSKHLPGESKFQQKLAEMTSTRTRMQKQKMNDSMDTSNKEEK
Description: Cell culture and transfection. The human promyelocytic leukemia cell line U937 was cultured in RPMI (Mediatech, Hernden, Va.) containing 10% fetal bovine serum (FBS; Mediatech). U2-OS, Saos-2, MCF7, PANC1 and MDA-MB-231 cell lines were cultured in Dulbecco modified Eagle Medium (DMEM; Mediatech) containing 10% FBS. A549 cells and A549 shRNA Rb cell lines were maintained in Ham F-12K supplemented with 10% FBS. ShRNA cells lines were maintained in media containing 0.5 μg/mL puromycin. H1650, PC-9 and Aspc1 cell line were cultured in RPMI (Gibco/Invitrogen, Carlsbad, Calif.) containing 10% FBS. PANC1 and CAPAN2 pancreatic cell lines and the A375 Melanoma cell line was grown in DMEM supplemented with 10% FBS. Human aortic endothelial cells (HAECs, Clonetics, San Diego, Calif.) were cultured in endothelial growth medium, supplemented with 5% FBS, according to the manufacturer's instructions. U251MG and U87MG glioma cell lines were maintained in DMEM supplemented with non-essential amino acids, […] β-mercaptoethanol, and 10% FBS. ShRNA cell lines were made by stably transfecting A549 cells with two different shRNA constructs that specifically target Rb obtained from a library. The adenovirus (Ad) constructs Ad-green fluorescent protein (GFP) and Ad-E2F1 were obtained from W. D. Cress. Ad-cyclin D was provided by I. Cozar-Castellano. In vitro library screening assays. Enzyme Linked ImmunoSorbent Assay (ELISA) 96-well plates were coated with 1 μg/mL of a glutathione S-transferase (GST) Raf-1 (1-149aa) overnight at 4° C. […] GST-Rb +/− compounds were then added to the plate and incubated for 90 minutes (min) at 37° C. The amount of Rb bound to Raf-1 was detected by Rb polyclonal antibody (Santa Cruz Biotechnology, Santa Cruz, Calif.) 1:1000 incubated for 60 min at 37° C. Donkey-anti-rabbit-IgG-HRP (1:10,000) was added to the plate and incubated at 37° C. for 60 minutes. The color was developed with orthophenylenediamine (Sigma, St. Louis, Mo.) and the reaction was terminated with 3 molar (M) H2SO4. Absorbance was read at 490 nanometers (nm). To determine disruption of Rb to E2F1, Phb, or HDAC1 the above protocol was used with the exception of coating GST Rb on the ELISA plate and adding the drugs in the presence or absence of GST E2F1, Phb, or HDAC1. E2F1 monoclonal antibody (1:2000) was used to detect the amount of Rb bound to E2F1. Prohibition monoclonal antibody was used at 1:1000 to detect the amount of Rb bound to Prohibition. For disruption of MEK-Raf-1 binding ELISAs, Raf-1 1 microgram/milliliter (μg/mL) was coated on the plate and GST-MEK (20 μg/mL) was incubated +/− the compounds for 30 minutes at room temperature. Mek1 polyclonal antibody was used at 1:1000 to detect the binding of Raf-1 to Mek1. The IC50 concentrations for the Rb:Raf-1 inhibitors were determined by plotting with Origin 7.5 software (Origin, Northampton, Mass.). In vitro binding assays. Glutathione S-transferase (GST) fusion of Rb, Raf-1, E2F1, and MEK1 have been previously described (Dasgupta P, Sun J, Wang S, et al. Mol Cell Biol 2004; 24(21):9527-9541). First, 200 micrograms (pig) of U937 asynchronous lysates were pre-incubated with 10 μM of the indicated drugs or 1 μM of the Raf-1 peptide for 30 minutes at 4° C. Next, 200 μg of the U937 lysates were incubated with glutathione beads carrying an equal amount of the GST fusion proteins in 200 μl of protein binding buffer (20 mM Tris [pH 7.5], 50 mM KCL, 0.5 mM EDTA, 1 mM dithiothreitol, 0.5% NP-40, 3 mg of bovine serum albumin/mL) at 4° C. for 2 h. (Wang S, Ghosh R, Chellappan S. Mol Cell Biol 1998; 18(12):7487-7498). Matrigel Assays. Matrigel (Collaborative Biomedical Products) was used to promote the differentiation of HAECs into capillary tube-like structures (Dasgupta P, Sun J, Wang S, et al. Mol Cell Biol 2004; 24(21):9527-9541). A total of 100 μl of thawed Matrigel was added to 96-well tissue culture plates, followed by incubation at 37° C. for 60 minutes to allow polymerization. […]

[3] = class symbol **, 20 μM, read-out: Inhibition at 10 μM or 20 μM
[4] = class symbols, 10 μM, read-out: % Inhibition at 10 or 20 μM
[5] = at 20 μM, read-out: Inhibition at 10 μM or 20 μM
[6] = first value of cell, concentration not printed (head: 10 μM), read-out: Inhibition at 10 μM or 20 μM
[7] = read-out: inhibition of the Rb:Raf-1 interaction

For `Cl.N=C(N)NC(=N)SCc1ccc(Cl)cc1Cl` [Compound 10c, (2,4-Dichlorophenyl)methyl Amidinoisothiourea Hydrochloride], the “proliferation (S-phase entry, BrdU incorporation)” value (“proliferation” below) [1] was “not inhibited”, the inhibition at 20 µM [2, 3] was 50 to 100% and the melting point was 139 to 142 °C.

`N=C(N)NC(=N)SCc1cc2c(cc1Cl)OCO2` [Compound 10h, (6-Chlorobenzo[d][1,3-dioxol-5-yl)methyl Amidinoisothiourea Hydrochloride] showed an inhibition at 20 µM [2, 3] of 50 to 100%.

For `N=C(N)SCc1ccc(F)cc1F` [Compound 3w, (2,4-Difluorophenyl)methyl isothiourea Hydrochloride], the inhibition at 10 µM [2, 4] was 50 to 100%.

For `Cl.N=C(N)NC(=N)SCc1ccc(F)cc1Cl` [Compound 10a, (2-Chloro-4-fluorophenyl)methyl Amidinoisothiourea Hydrochloride], the inhibition at 20 µM [2, 3] was 50 to 100% and the melting point was 154 to 156 °C.

For `Cl.N=C(N)NC(=N)SCc1ccc2ccccc2c1` [Compound 11a, (2-Naphthyl)methyl Amidinoisothiourea hydrochloride], the inhibition at 10 µM ([2]; read-out: Inhibition at 10 μM) was 50 to 100% and the melting point was 175 to 177 °C.

For `Cl.N=C(N)NC(=N)SCc1ccc(Cl)cc1[N+](=O)[O-]` [Compound 10d, (2-Nitro-4-chlorophenyl)methyl Amidinoisothiourea Hydrochloride], the inhibition at 10 µM ([2]; class symbol +, 10 μM, read-out: Inhibition at 10 μM or 20 μM) was 25 to 50% and the melting point was 183 to 185 °C.

For `Cl.N=C(N)SCc1ccc(Cl)cc1Cl` [Compound 3a, (2,4-Dichlorophenyl)methyl Isothiourea Hydrochloride], the “proliferation” value [1] was “not inhibited”.

`N=C(N)SCc1ccc(F)cc1Cl` [Compound 3v, 2-Chloro-4-fluorophenyl)methyl isothiourea Hydrochloride] gave an inhibition at 10 µM [2, 4] of 50 to 100%.

Work on `N=C(N)NC(=N)SCc1cc(Cl)ccc1Cl` [Compound 10f, (2,5-Dichlorophenyl)methyl Amidinoisothiourea Hydrochloride] yielded an inhibition at 20 µM [2, 3] of 50 to 100%.

Work on `N#Cc1ccc(CSC(=N)NC(=N)N)cc1` [Compound 10e, (4-Cyanophenyl)methyl Amidinoisothiourea Hydrochloride] yielded an inhibition at 20 µM [2, 5] of 22% and an inhibition at 10 µM [2, 6] of 6%.

Work on `N=C(N)SCc1ccc(Cl)cc1Cl` [Compound 1, reference compound] yielded an inhibition at 20 µM [2, 7] of 100%.

Compound `N=C(N)SCc1ccc(Cl)c2ccccc12` [Compound 2, reference compound] has an inhibition at 20 µM [2, 7] of 95%.

In the case of `N=C(N)NC(=N)SCc1ccc(Cl)c(F)c1` [Compound 10i, (4-Chloro-3-fluorophenyl)methyl Amidinoisothiourea Hydrochloride], the inhibition at 20 µM [2, 5] is reported as 42% and the inhibition at 10 µM [2, 6] is reported as 6%.

With `N=C(N)NC(=N)SCc1c(F)cccc1Cl` [Compound 10g, (2-Chloro-6-fluorophenyl)methyl Amidinoisothiourea Hydrochloride] the inhibition at 20 µM [2, 3] was 50 to 100%.

With `Cl.N=C(N)NC(=N)SCc1ccc(F)cc1F` [Compound 10b, (2,4-Difluorophenyl)methyl Amidinoisothiourea Hydrochloride] the “proliferation” value [1] was “not inhibited”, the inhibition at 20 µM [2, 3] was 50 to 100% and the melting point was 144 to 146 °C.

Compound `N=C(N)NC(=N)SCc1c(F)cccc1F` [Compound 10j, (2,6-Difluorophenyl)methyl Amidinoisothiourea Hydrochloride] has an inhibition at 20 µM [2, 3] of 50 to 100%.

Work on `Cl.N=C(N)NC(=N)SCc1ccc2ccccc2c1Br` [Compound 11b, 2-(1-Bromonaphthyl)methyl amidinoisothiourea hydrochloride] yielded an inhibition at 10 µM ([2]; read-out: Inhibition at 10 μM) of 50 to 100% and a melting point of 160 to 162 °C.

Work on `N=C(N)SCc1ccc(Cl)cc1[N+](=O)[O-]` [Compound 3u, (4-Chloro-2-nitrophenyl)methyl Isothiourea Hydrochloride] yielded an inhibition at 10 µM [2, 4] of 25 to 50%.
